In assay [1] the target is T1, human NTCP (Homo sapiens, UniProt Q14973).
T1 sequence (Q14973 1-349): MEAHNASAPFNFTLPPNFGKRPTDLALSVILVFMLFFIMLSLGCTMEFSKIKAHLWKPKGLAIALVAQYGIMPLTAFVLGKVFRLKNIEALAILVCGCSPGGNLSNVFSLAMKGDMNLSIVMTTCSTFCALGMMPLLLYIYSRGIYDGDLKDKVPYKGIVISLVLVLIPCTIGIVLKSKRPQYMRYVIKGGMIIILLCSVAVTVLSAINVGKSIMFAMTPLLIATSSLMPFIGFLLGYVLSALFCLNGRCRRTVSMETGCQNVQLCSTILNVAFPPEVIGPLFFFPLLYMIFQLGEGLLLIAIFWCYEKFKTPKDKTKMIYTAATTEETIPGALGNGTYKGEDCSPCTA
In words: Screening fluorescent competitive Myrcludex B-FITC binding assay (96-well, 10 µM drug).

The target in assay [2] is T1, human NTCP. In words: Screening taurocholate uptake assay (96-well, [14C]taurocholate, 10 µM drug).
Where [3] appears, read: screen, 10 µM drug, Myrcludex B-FITC binding.
Where [4] appears, read: combined ranking from functional and binding screening assays.
[5] abbreviates: screen, 10 µM drug, taurocholate uptake.
The mark [6] stands for this setting: Prestwick library screen, 10 µM drug, B-score of Myrcludex B-FITC binding.
[7] abbreviates: Prestwick library screen, 10 µM drug, B-score of taurocholate uptake.
[8] abbreviates: combined ranking from functional and binding assay B-scores.
The mark [9] stands for this setting: Prestwick library screen, Myrcludex B-FITC binding, 10 µM drug.
The mark [10] stands for this setting: Prestwick library screen, taurocholate uptake, 10 µM drug.
The mark [11] stands for this setting: ranking score beside the functional and binding assay B-scores of the screen.

Where a name gives a salt, the structure may show the parent alone. Read-outs that look alike come from different tables or passages of the source.

On to `C/C=C(/C(=C/C)c1ccc(O)cc1)c1ccc(O)cc1` [Dienestrol], for which, in assay [1] (setting [3]), the B-score binding assay is -0.567. Also, in assay [2] (setting [4]), the Ranking score came out at 419.874. Besides, the B-score functional assay in assay [2] (setting [5]) is recorded as -0.196.

On to `Cl.Clc1ccc(C(OCCN2CCCCC2)c2ccccc2)cc1` (stereo not drawn) [Cloperastine hydrochloride], for which, in assay [1] (setting [6]), the B-score binding assay came out at 0.356. The same molecule yielded a B-score functional assay in assay [2] (setting [7]) of 2.21. Besides, the Ranking score in assay [2] (setting [8]) is recorded as 1021.61.

`CC1(C)NC(=O)N(c2ccc([N+](=O)[O-])c(C(F)(F)F)c2)C1=O` [Nilutamide]: the B-score binding assay in assay [1] (setting [6]) turned out to be 0.756. In assay [2] (setting [7]), this molecule returned a B-score functional assay of 5.352. In addition, in assay [2] (setting [8]), the Ranking score worked out at 1119.7.

As for `C=C(CC)C(=O)c1ccc(OCC(=O)O)c(Cl)c1Cl` [Ethacrynic acid], in assay [1] (setting [6]), the B-score binding assay came to 0.672. In assay [2] (setting [7]), this molecule returned a B-score functional assay of 0.935. Further, the Ranking score in assay [2] (setting [8]) came to 1005.99.

`CC(=O)O[C@H]1CC[C@@]2(C)C(=CC[C@@H]3[C@@H]2CC[C@]2(C)C(=O)CC[C@@H]32)C1` [Dehydroisoandosterone 3-acetate] had a B-score binding assay in assay [1] (setting [3]) of -0.747. Moreover, the Ranking score in assay [2] (setting [4]) worked out at 438.862. This molecule also had a B-score functional assay in assay [2] (setting [5]) of 0.002.

As for `CCCCCCNC(=O)n1cc(F)c(=O)[nH]c1=O` [Carmofur], the B-score binding assay in assay [1] (setting [3]) turned out to be 0.877. In addition, the Ranking score in assay [2] (setting [4]) was 358.68. In assay [2] (setting [5]), the B-score functional assay is -2.036.

In assay [1] (setting [9]), `CC[C@]12CCCN3CCc4c(n(c5ccccc45)[C@@](O)(C(=O)OC)C1)[C@@H]32` [Vincamine] displayed a B-score binding assay of 0.616. The molecule further yielded a B-score functional assay in assay [2] (setting [10]) of -0.257. The molecule also returned a Ranking score in assay [2] (setting [11]) of 659.7.

The molecule `CCCNC(C)(C)COC(=O)c1ccccc1` [Meprylcaine hydrochloride] registered a B-score binding assay in assay [1] (setting [3]) of -1.608. Also, the Ranking score in assay [2] (setting [4]) is 382.481. For the same molecule, in assay [2] (setting [5]), the B-score functional assay came to 0.763.

Take `CC(=O)Nc1c(I)c(C(=O)N[C@H]2C(O)O[C@H](CO)[C@@H](O)[C@@H]2O)c(I)c(N(C)C(C)=O)c1I` (stereo partly drawn) [Metrizamide]: the B-score binding assay in assay [1] (setting [9]) is 0.138. In assay [2] (setting [10]), this molecule displayed a B-score functional assay of 0.395. In assay [2] (setting [11]), the Ranking score is given as 816.081.

As for `O=C(O)/C=C\C(=O)O.O=C(O)/C=C\C(=O)O.c1ccc2nc(N3CCNCC3)ccc2c1` [Quipazine dimaleate salt], the B-score binding assay in assay [1] (setting [6]) came to 1.213. The molecule further displayed a B-score functional assay in assay [2] (setting [7]) of 0.305. Further, the Ranking score in assay [2] (setting [8]) came to 954.17.

In assay [1] (setting [3]), `COC(=O)Nc1nc2ccc(C(=O)c3ccccc3)cc2[nH]1` [Mebendazole] showed a B-score binding assay of -0.531. In addition, the Ranking score in assay [2] (setting [4]) is on record as 327.443. In addition, the B-score functional assay in assay [2] (setting [5]) is on record as -0.824.

Consider `COC(=O)Nc1nc2cc(C(=O)c3ccc(F)cc3)ccc2[nH]1` [Flubendazol], for which, in assay [1] (setting [9]), the B-score binding assay is listed as -0.335. In assay [2] (setting [10]), this molecule returned a B-score functional assay of 1.185. Besides, the Ranking score in assay [2] (setting [11]) is listed as 683.74.

Regarding `CCCCOC(=O)c1ccc(O)cc1` [Butylparaben], in assay [1] (setting [9]), the B-score binding assay is -0.593. This molecule gave a B-score functional assay in assay [2] (setting [10]) of 5.239. The molecule also showed a Ranking score in assay [2] (setting [11]) of 668.543.

Take `NS(=O)(=O)c1cc(Cl)c(Cl)c(S(N)(=O)=O)c1` [Dichlorphenamide]: the B-score binding assay in assay [1] (setting [6]) was 2.215. In assay [2] (setting [7]), this molecule gave a B-score functional assay of 0.709. Besides, the Ranking score in assay [2] (setting [8]) is 1091.62.

On to `Cl.Cl.Fc1ccc(C(OCCN2CCN(CCCc3ccccc3)CC2)c2ccc(F)cc2)cc1` [GBR 12909 dihydrochloride], for which, in assay [1] (setting [3]), the B-score binding assay is -0.172. The Ranking score in assay [2] (setting [4]) is recorded as 416.575. Further, in assay [2] (setting [5]), the B-score functional assay is listed as -0.602.

`CC1(C)O[C@@H]2C[C@H]3[C@@H]4CCC5=CC(=O)C=C[C@]5(C)[C@H]4[C@@H](O)C[C@]3(C)[C@]2(C(=O)CO)O1` [Desonide] yielded a B-score binding assay in assay [1] (setting [9]) of 0.993. The same molecule came in with a B-score functional assay in assay [2] (setting [10]) of -0.358. The molecule also registered a Ranking score in assay [2] (setting [11]) of 665.567.

Consider `CCn1cc(C(=O)O)c(=O)c2cc(F)c(N3CCNCC3)nc21` [Enoxacin], for which the B-score binding assay in assay [1] (setting [6]) was 0.523. Also, the B-score functional assay in assay [2] (setting [7]) was determined as 3.277. For the same molecule, the Ranking score in assay [2] (setting [8]) came to 1072.03.

Take `C[C@]12CC[C@@H](O)C[C@@H]1CC[C@@H]1[C@@H]2CC[C@]2(C)C(=O)CC[C@@H]12` [Androsterone]: the B-score binding assay in assay [1] stood at 1.069. In addition, in assay [2], the B-score functional assay stood at 0.451 and the Ranking score stood at 969.912.

Regarding `NCCCC[C@H](N[C@@H](CCc1ccccc1)C(=O)O)C(=O)N1CCC[C@H]1C(=O)O` [Lisinopril], the B-score binding assay in assay [1] (setting [3]) was -1.412. In addition, in assay [2] (setting [4]), the Ranking score is given as 445.618. The molecule also returned a B-score functional assay in assay [2] (setting [5]) of 1.757.

For the molecule `CNS(=O)(=O)Cc1ccc2[nH]cc(CCN(C)C)c2c1` [Sumatriptan succinate], the B-score binding assay in assay [1] is recorded as 0.075. In assay [2], the B-score functional assay came out at 0.496 and the Ranking score is given as 810.351.

Regarding `CC(=O)OCC(=O)NCCCOc1cccc(CN2CCCCC2)c1` [Roxatidine Acetate HCl], in assay [1] (setting [3]), the B-score binding assay was determined as 0.239. In addition, the Ranking score in assay [2] (setting [4]) was 297.686. The B-score functional assay in assay [2] (setting [5]) was -2.305.

In assay [1] (setting [6]), `CN1CCC(=C2c3ccccc3CCc3cccnc32)CC1` [Azatadine maleate] had a B-score binding assay of 1.844. This molecule returned a B-score functional assay in assay [2] (setting [7]) of 0.678. Besides, the Ranking score in assay [2] (setting [8]) was 1070.86.

For `CNCC[C@@H](Oc1cccc2ccccc12)c1cccs1.Cl` [(R)-Duloxetine hydrochloride], the B-score binding assay in assay [1] was -0.619. Moreover, in assay [2], the B-score functional assay worked out at 1.079 and the Ranking score is reported as 610.37.

`Br.COc1ccc2c(c1)[C@]13CCCC[C@@H]1[C@H](C2)N(C)CC3.O` showed a B-score binding assay in assay [1] (setting [6]) of 2.674. Further, the B-score functional assay in assay [2] (setting [7]) is 0.044. Moreover, the Ranking score in assay [2] (setting [8]) was 928.917.

`CC(C)(C)NCC(O)COc1cccc2c1CC(O)C(O)C2` (stereo not drawn) [Nadolol]: in assay [1] (setting [6]), the B-score binding assay was determined as 1.627. This molecule also returned a B-score functional assay in assay [2] (setting [7]) of 0.292. The Ranking score in assay [2] (setting [8]) came out at 986.853.

Take `C[C@]12COC(=O)C[C@@H]1CC[C@@H]1[C@@H]2CC[C@@]2(C)[C@H]1CC[C@]2(C)O` [Oxandrolone]: the B-score binding assay in assay [1] was determined as 1.484. In assay [2], this molecule yielded a B-score functional assay of -0.501 and a Ranking score of 649.785.

Regarding `CC(C)N(CCC(C(N)=O)(c1ccccc1)c1ccccn1)C(C)C` (stereo not drawn) [Disopyramide], the B-score binding assay in assay [1] (setting [6]) turned out to be 2.245. In addition, the B-score functional assay in assay [2] (setting [7]) came out at 0.051. Moreover, the Ranking score in assay [2] (setting [8]) turned out to be 925.407.

With `CN(C)CCC=C1c2ccccc2C=Cc2ccccc21` [Cyclobenzaprine hydrochloride], the B-score binding assay in assay [1] (setting [9]) is listed as 0.264. Also, the B-score functional assay in assay [2] (setting [10]) is on record as -0.009. This molecule gave a Ranking score in assay [2] (setting [11]) of 718.919.

Consider `NC(=O)c1ncn([C@@H]2O[C@H](CO)[C@@H](O)[C@H]2O)n1` [Ribavirin], for which the B-score binding assay in assay [1] (setting [9]) is given as -0.029. This molecule showed a B-score functional assay in assay [2] (setting [10]) of 0.312. In assay [2] (setting [11]), this molecule yielded a Ranking score of 712.803.

These data come from PMC5681660, “Reduced hepatitis B and D viral entry using clinically applied drugs as novel inhibitors of the bile acid transporter NTCP” (Scientific Reports, 2017).
